Paper PMC9658586, “1,4-Naphthoquinone Motif in the Synthesis of New Thiopyrano[2,3-d]thiazoles as Potential Biologically Active Compounds” (Molecules, 2022)

How the values were obtained:
UO-31/Renal Cancer = assay: NCI single-dose screen, UO-31; assay type: cell-based, human; details: 10 μM, 48 h
Description: (§1) Considering the results of previous studies of fused thiazolidinones and their analogs, a series of thiopyrano[2,3-d]thiazoles with naphthoquinone fragments in the structure were studied for their anticancer activity. Thus, synthesized thiopyranothiazole derivatives 3.5 and 3.6 were selected by the National Cancer Institute (NCI), U.S., for their anticancer activity at 10 μM concentration toward a panel of sixty cancer cell lines representing nine different types (leukemia, melanoma, lung, colon, CNS, ovarian, renal, prostate, and breast cancers) (Figures S13–S14). Selection for screening based on new derivatives’ ability to add diversity to the NCI small molecules collection and anticancer assays were performed according to the NCI guidelines and protocols previously described. The compounds were added at the mentioned concentration, and the cell cultures were incubated for 48 h. The results for each compound were reported as the growth percent (GP%) of treated cells compared with untreated control cells.
(§2) Anticancer in vitro assay was performed on the human tumor cell lines panel derived from nine neoplastic diseases by the protocol of the Drug Evaluation Branch, National Cancer Institute, Bethesda, MD, USA [44, 45, 46]. […] GP% was spectrophotometrically evaluated vs. controls not treated with test agents.

salmon sperm DNA = assay: Spectroscopic DNA interaction assay (KMnO4 oxidation); assay type: binding; details: DNA + compound + KMnO4, time- and concentration-dependent, up to 3 h; binder if >0.05 or <−0.05
From the text: The method investigates conformational changes in the DNA; for example, when DNA is exposed to an intercalating, alkylation, or other classes of DNA-binding agents. It is based on the oxidative reaction of potassium permanganate with pyrimidine bases. Compounds that interact with DNA distort its duplex structure, thus exposing pyrimidine bases for oxidation by KMnO4, which generates products that can be detected by spectrophotometry. Different classes of DNA-binding compounds can be studied in such a way. […] Net A405 ranged from 0.00 to 0.50 in the presence of the compound, and Net A405 ranged from 0.02 to 0.045 in the control case (Figure 9).
A spectroscopic DNA interaction study was performed as previously described. salmon sperm DNA (Sigma-Aldrich, USA) was diluted in Milli-Q water at 4 °C for 24 h at 1.65 mg/mL. Tested compounds were dissolved in acetone. After 1 h of incubation of DNA and compound, KMnO4 was added to a final concentration of 0.3 mM and the absorbance at 405 nm was measured (Absorbance Reader BioTek ELx800) (BioTek Instruments, Inc., Winooski, VT, USA) in different periods up to 3 h. Appropriate controls of DNA alone and compound alone were included, and these Abs values were subtracted from the test sample to provide the net change in absorbance (NetAbs). […]

LOX IMVI/Melanoma = assay: NCI single-dose screen, LOX IMVI; assay type: cell-based, human; details: 10 μM, 48 h
Description: as §1, §2

MCF7/Breast Cancer = assay: NCI single-dose screen, MCF7; assay type: cell-based, human; details: 10 μM, 48 h
Description: as §1, §2

MALME-3M/Melanoma = assay: NCI single-dose screen, MALME-3M; assay type: cell-based, human; details: 10 μM, 48 h
Description: as §1, §2

A498/ Renal Cancer = assay: NCI single-dose screen, A498; assay type: cell-based, human; details: 10 μM, 48 h
Description: as §1, §2

SK-MEL-5/Melanoma = assay: NCI single-dose screen, SK-MEL-5; assay type: cell-based, human; details: 10 μM, 48 h
Description: (§3) Selection for screening based on new derivatives’ ability to add diversity to the NCI small molecules collection and anticancer assays were performed according to the NCI guidelines and protocols previously described. The compounds were added at the mentioned concentration, and the cell cultures were incubated for 48 h.
as §2, with “46]. Tested compounds were added to the culture at a single concentration (10^−5 M), and the cultures were incubated for 48 h.” for “46].”

SK-MEL-2/Melanoma = assay: NCI single-dose screen, SK-MEL-2; assay type: cell-based, human; details: 10 μM, 48 h
Description: as §1, §2

[1] = tested on: SNB-75/ Central Nervous System Cancer; assay: NCI single-dose screen, SNB-75; assay type: cell-based, human; details: 10 μM, 48 h
Description: as §1, §2

COLO-205/ Colon Cancer = assay: NCI single-dose screen, COLO-205; assay type: cell-based, human; details: 10 μM, 48 h
Description: as §1, §2

M14/ADR-RES/ Melanoma = assay: NCI single-dose screen, M14/ADR-RES; assay type: cell-based, human; details: 10 μM, 48 h
Description: as §3
as §2, with “46]. Tested compounds were added to the culture at a single concentration (10^−5 M), and the cultures were incubated for 48 h.” for “46].”

| Compound | Most Sensitive Cell Line Growth, % (UO-31/Renal Cancer) (UO-31/Renal Cancer) [%] | Net A405 (net change in absorbance) (salmon sperm DNA) | Most Sensitive Cell Line Growth, % (LOX IMVI/Melanoma) (LOX IMVI/Melanoma) [%] | Most Sensitive Cell Line Growth, % (MCF7/Breast Cancer) (MCF7/Breast Cancer) [%] | Most Sensitive Cell Line Growth, % (MALME-3M/Melanoma) (MALME-3M/Melanoma) [%] | Most Sensitive Cell Line Growth, % (A498/ Renal Cancer) (A498/ Renal Cancer) [%] | Most Sensitive Cell Line Growth, % (SK-MEL-5/Melanoma) (SK-MEL-5/Melanoma) [%] | Most Sensitive Cell Line Growth, % (SK-MEL-2/Melanoma) (SK-MEL-2/Melanoma) [%] | Most Sensitive Cell Line Growth, % (SNB-75/ Central Nervous System Cancer) [1] [%] | Most Sensitive Cell Line Growth, % (COLO-205/ Colon Cancer) (COLO-205/ Colon Cancer) [%] | Most Sensitive Cell Line Growth, % (M14/ADR-RES/ Melanoma) (M14/ADR-RES/ Melanoma) [%] |
| --- | --- | --- | --- | --- | --- | --- | --- | --- | --- | --- | --- |
| O=C1C2=C(C(=O)c3ccccc31)C(CCc1ccccc1)c1sc(=O)[nH]c1S2 (centres unmarked) [Compound 3.6, 11-Phenethyl-3,11-dihydro-2H-benzo[6,7]thiochromeno[2,3-d]thiazole-2,5,10-trione] | 51.76 | 0.00 to 0.50 | 57.17 | 58.83 | 45.25 |  |  |  |  |  |  |
| COc1cccc2c1C(=O)c1c(O)c3c(c(O)c1C2=O)C[C@@](O)(C(=O)CO)C[C@@H]3O[C@H]1C[C@H](N)[C@H](O)[C@H](C)O1 [Doxorubicin, doxorubicin, reference compound] |  |  |  |  |  | −75.10 | −86.40 | −82.60 | −76.10 | −81.60 | −71.60 |
